Experimental data published in patent publication US20260217701A1, “SELECTIVE BET INHIBITORS AND USES THEREOF” (Tay Therapeutics Limited, priority 2022, published 2026).

Key:
IL-17A = IL-17A (Homo sapiens, UniProt Q16552); details: from FDA pharmacology review / corporate presentation; read-out: reported IC50 for IL-17A; cited from earlier work
[1] = test system: goblet cells in gastrointestinal villi; details: at 28 days; Faivre et al.; not head-to-head; cited from earlier work
BET BD2 = details: public sources, not a head-to-head trial, cited from earlier work
[2] = SLE (lupus) model: body weight; type: in vivo, MRL/MpJ-Faslpr mice; details: for Mean Body Weight: Cyclophosphamide 50 mg/kg IP once a week
Experimental: (§1) Female MRL/MpJ-Faslpr mice (The Jackson Laboratory) were used to assess the efficacy of Compound A in treating lupus. Starting when animals were 10 weeks of age, protein concentration in urine was measured using urine dipsticks.
(§2) At the start of the study, each group in the study had two animals that were 9 weeks old, and all others were 10 weeks old. Dosing of all animals with the test compounds began when the older animals were 11 weeks old. […] […] Dosing was at a consistent time each dosing day throughout the study.
(§3) Compound A may be formulated as illustrated in Experimental Method A (see Table 2E.). […] A stock solution of Compound A in DMSO (stock solution concentration of Compound A of 40 mg/mL) was prepared and aliquots for weekly preparations were frozen at −20° C. On each preparation day, a stock solution aliquot was thawed and diluted with other vehicle components to the desired concentration. Formulated Compound A and vehicle were at room temperature for dosing.
(§4) The study began when the older animals were 11 weeks old, and concluded when the older animals were 19 weeks old. Body weight was recorded once a week, with the exception of two weight measurements taken the first week of the study (when the older animals were 11 weeks old). Proteinuria was measured in the urine of animals with urine dipsticks once a week, starting when the older animals were 10 weeks old. […] Blood samples were taken retro-orbitally at the start of the study to establish a baseline (15 animals, 3 per group), and when the older animals were 16 weeks (all animals) and when animals were 19 weeks (all animals) at the conclusion of the study. Blood urea nitrogen (BUN) was measured in all animals at study termination in blood samples. After blood collection, animals were euthanized, perfused with PBS, and the left kidneys were collected and weighed and fixed in 10% buffered formalin. Left kidneys were then processed to a formalin-fixed, paraffin-embedded (FFPE) block, and histology was analyzed in Periodic Acid-Schiff-stained sections (1 section per slide), using the criteria described in Alperovich et al., Lupus, 16:18-24 (2007). Right kidneys were weighed and snap-frozen at −80° C. Spleens were also collected and weighed. SLE in animals treated with a BET inhibitor and vehicle.

lupus [3] = assay: SLE (lupus) model: proteinuria scores; type: in vivo, MRL/MpJ-Faslpr mice; details: Cyclophosphamide 50 mg/kg IP once a week
Experimental: as §1, §2, §3, §4

lupus [4] = assay: SLE (lupus) model: kidney histology lesion scores; type: in vivo, MRL/MpJ-Faslpr mice; details: Week 19
Experimental: as §1, §2, §3, §4

lupus [5] = assay: SLE (lupus) model: kidney and spleen weight; type: in vivo, MRL/MpJ-Faslpr mice; details: Week 19
Experimental: as §1, §2, §3, §4

lupus [6] = assay: SLE (lupus) model: blood urea nitrogen (BUN) in serum; type: in vivo, MRL/MpJ-Faslpr mice; details: Cyclophosphamide 50 mg/kg IP once a week; Week 19
Experimental: as §1
At the start of the study, each group in the study had two animals that were 9 weeks old, and all others were 10 weeks old. Dosing of all animals with the test compounds began when the older animals were 11 weeks old. Starting on Day 1, in Groups 1-4, vehicle or Compound A was administered per os (PO) […] (QD) as described above in Table 33. […] Dosing was at a consistent time each dosing day throughout the study.
as §3, §4
BUN provides important information about how well kidneys are working. A BUN test measures the amount of urea nitrogen in the blood and indicates how much urea has been processed by the kidneys and is indicative of renal competency. Urea is a waste product that is excreted in urine.

anti-dsDNA antibodies = assay: SLE (lupus) model: anti-dsDNA antibodies in serum by ELISA; type: in vivo, MRL/MpJ-Faslpr mice; details: for Anti-dsDNA Antibodies in serum, mean: Cyclophosphamide 50 mg/kg IP once a week
Experimental: as §1, §2, §3, §4
Anti-dsDNA antibody test measures the amount of antibody to double-stranded deoxyribonucleic acid (anti-dsDNA) that may be present in the blood. Anti-dsDNA antibodies are highly specific markers of SLE as these antibodies are not thought to be present in other kinds of autoimmune disorder.

[7] = Cyclophosphamide 50 mg/kg IP once a week

Sequence of IL-17A (Q16552 24-155): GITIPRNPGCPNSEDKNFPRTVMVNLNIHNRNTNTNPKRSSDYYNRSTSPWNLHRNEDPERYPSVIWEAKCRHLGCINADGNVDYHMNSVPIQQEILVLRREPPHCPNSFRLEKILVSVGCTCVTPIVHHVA

**Q.** For DC-806 [reference compound], which IC50 (IL-17A) is on record?
**A.** The IC50 was 5.7 nM.

**Q.** What does the source list for `CCS(=O)(=O)Nc1ccc(Oc2ccc(F)cc2F)c(-c2cn(C)c(=O)c3[nH]ccc23)c1` [ABBV-075]?
**A.** Effect on goblet cells in gastrointestinal villi [1]: depleted goblet cells; BD2 (BET BD2; comparator BET inhibitors): 13 nM; Selectivity (BD1/BD2) (BET BD2; nanoBRET assay, comparator): 2.6x

**Q.** For `O=P1(N(CCCl)CCCl)NCCCO1` (stereo not drawn) [Cyclophosphamide, cyclophosphamide, reference compound], which Mean Body Weight ([2]; Week 11) is on record?
**A.** The Mean Body Weight was 35.0 g.

**Q.** What about the Mean Body Weight ([2]; Week 12) of the same molecule?
**A.** The Mean Body Weight was 36.2 g.

**Q.** And the Mean Body Weight ([2]; Week 13)?
**A.** Its Mean Body Weight is 36.1 g.

**Q.** And the Mean Body Weight ([2]; Week 14)?
**A.** Its Mean Body Weight is 37.2 g.

**Q.** And the Mean Body Weight ([2]; Week 15)?
**A.** Its Mean Body Weight is 37.5 g.

**Q.** And the Mean Body Weight ([2]; Week 16)?
**A.** The Mean Body Weight was 38.6 g.

**Q.** What about the Mean Body Weight ([2]; Week 17) of the same molecule?
**A.** Its Mean Body Weight is 38.6 g.

**Q.** What about the Mean Body Weight ([2]; Week 18) of the same molecule?
**A.** Its Mean Body Weight is 38.9 g.

**Q.** And the Mean Body Weight ([2]; Week 19)?
**A.** Its Mean Body Weight is 39.1 g.

**Q.** What about the “Relative end body weight (% of Week 11) ± SEM” value ([2]; Cyclophosphamide group) of the same molecule?
**A.** The value was 111.8% ± 1.7%.

**Q.** What about the Mean proteinuria score (lupus [3]; Week 10) of the same molecule?
**A.** The Mean proteinuria score was 2.00.

**Q.** And the Mean proteinuria score (lupus [3]; Week 11)?
**A.** Its Mean proteinuria score is 2.05±.

**Q.** And the Mean proteinuria score (lupus [3]; Week 12)?
**A.** Its Mean proteinuria score is 2.10.

**Q.** And the Mean proteinuria score (lupus [3]; Week 13)?
**A.** Its Mean proteinuria score is 2.35.

**Q.** And the Mean proteinuria score (lupus [3]; Week 14)?
**A.** The Mean proteinuria score was 2.35.

**Q.** And the Mean proteinuria score (lupus [3]; Week 15)?
**A.** Its Mean proteinuria score is 2.25.

**Q.** What about the Mean proteinuria score (lupus [3]; Week 16) of the same molecule?
**A.** The Mean proteinuria score was 1.85.

**Q.** And the Mean proteinuria score (lupus [3]; Week 17)?
**A.** The Mean proteinuria score was 2.05.

**Q.** What about the Mean proteinuria score (lupus [3]; Week 18) of the same molecule?
**A.** The Mean proteinuria score was 2.10.

**Q.** And the Mean proteinuria score (lupus [3]; Week 19)?
**A.** Its Mean proteinuria score is 2.25.

**Q.** What about the “End proteinuria score ± SEM” value (lupus [3]; end of study (Week 19)) of the same molecule?
**A.** Its value is 2.25 ± 0.13.

**Q.** What about the “Total Glomerular Lesion (mean score)” value (lupus [4]; [7]) of the same molecule?
**A.** Its value is 0.3.

**Q.** And the “Total Glomerular Lesion (table title: Mean Total Kidney Lesion Scores)” value (lupus [4]; [7])?
**A.** The value was 0.6.

**Q.** And the “Total Tubular and Interstitial Lesion (mean score)” value (lupus [4]; [7])?
**A.** The value was 0.3.

**Q.** And the “Mean total glomerular lesion score” value (lupus [4]; cyclophosphamide group)?
**A.** Its value is 0.3.

**Q.** What about the “Mean total kidney lesion score” value (lupus [4]; cyclophosphamide group) of the same molecule?
**A.** The value was “about 0.6”.

**Q.** What about the “Mean total tubular and interstitial lesion score” value (lupus [4]; cyclophosphamide group) of the same molecule?
**A.** The value was “about 0.3”.

**Q.** What about the “Mean Kidney Weight” value (lupus [5]; [7]) of the same molecule?
**A.** Its value is 191 mg.

**Q.** What about the “Mean Spleen Weight” value (lupus [5]; [7]) of the same molecule?
**A.** The value was 116 mg.

**Q.** What about the “Kidney weights relative to controls” value (lupus [5]; Compound A (10 mg/kg) and cyclophosphamide groups) of the same molecule?
**A.** Its value is “slightly decreased kidney weights”.

**Q.** What about the “Spleen weights relative to vehicle controls” value (lupus [5]; Compound A (all tested doses) and cyclophosphamide) of the same molecule?
**A.** The value was “decreased spleen weights”.

**Q.** And the BUN serum concentration (lupus [6])?
**A.** Its BUN serum concentration is 11.0 mg/dL.

**Q.** What about the “Anti-dsDNA Antibodies in serum, mean” value (anti-dsDNA antibodies; Week 16) of the same molecule?
**A.** The value was 28 units/mL.

**Q.** And the “Anti-dsDNA Antibodies in serum, mean” value (anti-dsDNA antibodies; Week 19)?
**A.** The value was 23 units/mL.

**Q.** And the “Anti-dsDNA antibodies in serum versus Vehicle group” value (anti-dsDNA antibodies; Week 16 and Week 19, Compound A (10 mg/mL) and Cyclophosphamide)?
**A.** The value was “effective in reducing levels to well below that seen with the Vehicle administered group”.
